Experimental data from patent US20020137929A1, “1 - (3-heterocyclylphenyl) isothiourea, -isourea, -guanidine and -amidine herbicidal agents” (Intellectual Property Department, BASF Aktiengesellschaft, priority 1998, published 2002).

Experiments:
[1] = test system: ECHORC (Watergrass (Calif.)); assay: Postemergence weed control under flooded paddy conditions; format: in vivo, Echinochloa oryzoides; settings: postemergence weeds, 3-4 weeks after treatment
Summary of the method: (§1)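 Injury ratings (0–9 scale covering stand, vigor, malformation, size, chlorosis and overall appearance versus control) were made three to four weeks after treatment. Test material, about 0.0313 to 0.500 kg/ha a.i. in 50/50 v/v aqueous/acetone, was added to flood water 1.5 to 3 cm deep over 3 to 5 cm weeds and 1.5 to 2.5 leaf rice.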

[2] = test system: TRZAWR (Wheat, Winter, cv Riband); assay: Postemergence herbicidal evaluation; format: in vivo, Triticum aestivum; settings: for TRZAWR herbicidal rating: postemergence
Summary of the method: (§2)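 Seedlings grown about two weeks were sprayed at 40 psi with compound dispersed in 50/50 acetone/water plus 0.5% TWEEN 20, at about 0.0156 to 0.500 kg/ha. Plants were kept in the greenhouse and scored 4–5 weeks later on a 0–9 visual scale against untreated controls.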

ORYSAT (Rice, Tebonnet) = assay: Preemergence herbicidal evaluation; format: in vivo, Oryza sativa, (L.) Tebonnet; settings: rated 4-5 weeks after treatment
Summary of the method: (§3)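 Herbicidal effect scored visually, 0-9, at 4 to 5 weeks against a control; compound applied preemergence by aqueous acetone spray to seeded soil at about 0.0156 to 0.500 kg/ha.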

[3] = test system: TRZAWR (Wheat, Winter, cv Riband); assay: Preemergence herbicidal evaluation; format: in vivo, Triticum aestivum; settings: rated 4-5 weeks after treatment
Summary of the method: as §3

ECHCG (Barnyardgrass) = assay: Preemergence herbicidal evaluation; format: in vivo, Echinochloa crus-galli; settings: rated 4-5 weeks after treatment
Summary of the method: as §3

SETVI (Foxtail, Green) = assay: Preemergence herbicidal evaluation; format: in vivo, Setaria viridis; settings: rated 4-5 weeks after treatment
Summary of the method: as §3

MOOVA (Monochoria) = assay: Preemergence weed control under flooded paddy conditions; format: in vivo, Monochoria vaginalis; settings: rated 3-4 weeks after treatment
Summary of the method: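 Herbicidal effect is scored visually on a 0-9 scale against an untreated control, three to four weeks after compounds are pipetted into the flood water (1.5 to 3 cm deep) over seeds planted in silt loam at 0.5 cm depth. Rates: about 0.0313 to 0.500 kg/ha.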

CYPIR (Rice Flatsedge) = assay: Postemergence weed control under flooded paddy conditions; format: in vivo, Cyperus iria; settings: postemergence weeds, 3-4 weeks after treatment
Summary of the method: as §1

ABUTH (Velvetleaf) = assay: Postemergence herbicidal evaluation; format: in vivo, Abutilon theophrasti; settings: for ABUTH herbicidal rating: postemergence
Summary of the method: as §2

[4] = test system: IPOHE (Morningglory, Ivyleaf); assay: Preemergence herbicidal evaluation; format: in vivo, Ipomoea hederacea; settings: rated 4-5 weeks after treatment
Summary of the method: as §3

[5] = test system: ECHORC (Watergrass (Calif.)); assay: Preemergence weed control under flooded paddy conditions; format: in vivo, Echinochloa oryzoides; settings: rated 3-4 weeks after treatment
Summary of the method: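 Visual injury scored 0-9 against control three to four weeks post-treatment, greenhouse-grown. Application: acetone/water (50/50) solutions dosed directly into flood water (1.5-3 cm over silt loam, planted top 0.5 cm), roughly 0.0313 to 0.500 kg/ha active ingredient.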

[6] = test system: IPOHE (Morningglory, Ivyleaf); assay: Postemergence herbicidal evaluation; format: in vivo, Ipomoea hederacea; settings: for IPOHE herbicidal rating: postemergence
Summary of the method: as §2

[7] = test system: CHEAL (Lambsquarters, Common); assay: Preemergence herbicidal evaluation; format: in vivo, Chenopodium album; settings: rated 4-5 weeks after treatment
Summary of the method: as §3

Structure (SMILES): C=CCN1C(=O)CSC1=Nc1cc(-n2c(=O)cc(C(F)(F)F)n(C)c2=O)c(F)cc1Cl [Compound 27]
- Herbicidal rating ECHORC ([1]; rate 0.0313 kg/ha): 6.0
- Herbicidal rating ECHORC ([1]; rate 0.0625 kg/ha): 7.0
- Herbicidal rating ECHORC ([1]; rate 0.1250 kg/ha): 9.0
- Herbicidal rating ECHORC ([1]; rate 0.2500 kg/ha): 9.0
- TRZAWR herbicidal rating ([2]; rate 0.0158 kg/ha): 3.0
- TRZAWR herbicidal rating ([2]; rate 0.0315 kg/ha): 4.0
- TRZAWR herbicidal rating ([2]; rate 0.0630 kg/ha): 4.5
- Preemergence herbicidal rating ORYSAT (ORYSAT (Rice, Tebonnet); rate 0.0156 kg/ha): 0.0
- Preemergence herbicidal rating ORYSAT (ORYSAT (Rice, Tebonnet); rate 0.0313 kg/ha): 0.0
- Preemergence herbicidal rating ORYSAT (ORYSAT (Rice, Tebonnet); rate 0.0625 kg/ha): 3.0
- Preemergence herbicidal rating ORYSAT (ORYSAT (Rice, Tebonnet); rate 0.1250 kg/ha): 3.0
- Preemergence herbicidal rating ORYSAT (ORYSAT (Rice, Tebonnet); rate 0.2500 kg/ha): 8.0
- Preemergence herbicidal rating TRZAWR ([3]; rate 0.0156 kg/ha): 0.0
- Preemergence herbicidal rating TRZAWR ([3]; rate 0.0625 kg/ha): 3.0
- Preemergence herbicidal rating TRZAWR ([3]; rate 0.1250 kg/ha): 7.0
- Preemergence herbicidal rating TRZAWR ([3]; rate 0.2500 kg/ha): 9.0
- Preemergence herbicidal rating ECHCG (ECHCG (Barnyardgrass); rate 0.0156 kg/ha): 0.0
- Preemergence herbicidal rating ECHCG (ECHCG (Barnyardgrass); rate 0.0313 kg/ha): 8.0
- Preemergence herbicidal rating ECHCG (ECHCG (Barnyardgrass); rate 0.0625 kg/ha): 9.0
- Preemergence herbicidal rating ECHCG (ECHCG (Barnyardgrass); rate 0.1250 kg/ha): 9.0
- Preemergence herbicidal rating ECHCG (ECHCG (Barnyardgrass); rate 0.2500 kg/ha): 9.0
- Preemergence herbicidal rating SETVI (SETVI (Foxtail, Green); rate 0.0156 kg/ha): 0.0
- Preemergence herbicidal rating SETVI (SETVI (Foxtail, Green); rate 0.0313 kg/ha): 9.0
- Preemergence herbicidal rating SETVI (SETVI (Foxtail, Green); rate 0.0625 kg/ha): 9.0
- Preemergence herbicidal rating SETVI (SETVI (Foxtail, Green); rate 0.1250 kg/ha): 9.0
- Preemergence herbicidal rating SETVI (SETVI (Foxtail, Green); rate 0.2500 kg/ha): 9.0
- Herbicidal rating MOOVA (MOOVA (Monochoria); 0.0313 kg/ha): 9.0
- Herbicidal rating MOOVA (MOOVA (Monochoria); 0.0625 kg/ha): 9.0
- Herbicidal rating MOOVA (MOOVA (Monochoria); 0.1250 kg/ha): 9.0
- Herbicidal rating MOOVA (MOOVA (Monochoria); 0.2500 kg/ha): 9.0
- Herbicidal rating CYPIR (CYPIR (Rice Flatsedge); rate 0.0313 kg/ha): 3.0
- Herbicidal rating CYPIR (CYPIR (Rice Flatsedge); rate 0.0625 kg/ha): 4.0
- Herbicidal rating CYPIR (CYPIR (Rice Flatsedge); rate 0.1250 kg/ha): 6.0
- Herbicidal rating CYPIR (CYPIR (Rice Flatsedge); rate 0.2500 kg/ha): 9.0
- ABUTH herbicidal rating (ABUTH (Velvetleaf); rate 0.0158 kg/ha): 9.0
- ABUTH herbicidal rating (ABUTH (Velvetleaf); rate 0.0315 kg/ha): 9.0
- ABUTH herbicidal rating (ABUTH (Velvetleaf); rate 0.0630 kg/ha): 9.0
- Preemergence herbicidal rating IPOHE ([4]; rate 0.0156 kg/ha): 0.0
- Preemergence herbicidal rating IPOHE ([4]; rate 0.0313 kg/ha): 0.0
- Preemergence herbicidal rating IPOHE ([4]; rate 0.0625 kg/ha): 8.0
- Preemergence herbicidal rating IPOHE ([4]; rate 0.1250 kg/ha): 9.0
- Preemergence herbicidal rating IPOHE ([4]; rate 0.2500 kg/ha): 9.0
- Herbicidal rating ECHORC ([5]; 0.0313 kg/ha): 6.0
- Herbicidal rating ECHORC ([5]; 0.0625 kg/ha): 7.0
- Herbicidal rating ECHORC ([5]; 0.1250 kg/ha): 9.0
- Herbicidal rating ECHORC ([5]; 0.2500 kg/ha): 9.0
- IPOHE herbicidal rating ([6]; rate 0.0158 kg/ha): 9.0
- IPOHE herbicidal rating ([6]; rate 0.0315 kg/ha): 9.0
- IPOHE herbicidal rating ([6]; rate 0.0630 kg/ha): 9.0
- Preemergence herbicidal rating CHEAL ([7]; rate 0.0156 kg/ha): 0.0
- Preemergence herbicidal rating CHEAL ([7]; rate 0.0313 kg/ha): 9.0
- Preemergence herbicidal rating CHEAL ([7]; rate 0.0625 kg/ha): 9.0
- Preemergence herbicidal rating CHEAL ([7]; rate 0.1250 kg/ha): 9.0
- Preemergence herbicidal rating CHEAL ([7]; rate 0.2500 kg/ha): 9.0

Structure (SMILES): CCOC(=O)CN1C(=O)C(CC(=O)OCc2ccccc2)OC1=Nc1cc(-n2c(=O)cc(C(F)(F)F)n(C)c2=O)c(F)cc1Cl (stereo not shown) [Compound 40, 2-{{2-Chloro-5-[3,6-dihydro-3-methyl-2,6-dioxo-4-(trifluoromethyl)-1(2H)-pyrimidinyl]-4-fluorophenyl}imino}-4-oxo-3,5-oxazolidinediacetic acid, 5-benzyl ethyl ester]
- Herbicidal rating ECHORC ([1]; rate 0.0313 kg/ha): 5.0
- Herbicidal rating ECHORC ([1]; rate 0.0625 kg/ha): 5.0
- Herbicidal rating ECHORC ([1]; rate 0.1250 kg/ha): 5.0
- Herbicidal rating ECHORC ([1]; rate 0.2500 kg/ha): 9.0
- Postemergence herbicidal rating TRZAWR ([2]; Rate 0.0158 kg/ha): 4.0
- Postemergence herbicidal rating TRZAWR ([2]; Rate 0.0315 kg/ha): 4.0
- Postemergence herbicidal rating TRZAWR ([2]; Rate 0.0630 kg/ha): 4.5
- Preemergence herbicidal rating ORYSAT (ORYSAT (Rice, Tebonnet); rate 0.0313 kg/ha): 0.0
- Preemergence herbicidal rating ORYSAT (ORYSAT (Rice, Tebonnet); rate 0.0625 kg/ha): 0.0
- Preemergence herbicidal rating ORYSAT (ORYSAT (Rice, Tebonnet); rate 0.1250 kg/ha): 0.0
- Preemergence herbicidal rating ORYSAT (ORYSAT (Rice, Tebonnet); rate 0.2500 kg/ha): 1.0
- Preemergence herbicidal rating TRZAWR ([3]; rate 0.0313 kg/ha): 0.0
- Preemergence herbicidal rating TRZAWR ([3]; rate 0.0625 kg/ha): 0.0
- Preemergence herbicidal rating TRZAWR ([3]; rate 0.1250 kg/ha): 0.0
- Preemergence herbicidal rating TRZAWR ([3]; rate 0.2500 kg/ha): 1.0
- Preemergence herbicidal rating ECHCG (ECHCG (Barnyardgrass); rate 0.0313 kg/ha): 0.0
- Preemergence herbicidal rating ECHCG (ECHCG (Barnyardgrass); rate 0.0625 kg/ha): 0.0
- Preemergence herbicidal rating ECHCG (ECHCG (Barnyardgrass); rate 0.1250 kg/ha): 1.0
- Preemergence herbicidal rating ECHCG (ECHCG (Barnyardgrass); rate 0.2500 kg/ha): 1.0
- Preemergence herbicidal rating SETVI (SETVI (Foxtail, Green); rate 0.0313 kg/ha): 0.0
- Preemergence herbicidal rating SETVI (SETVI (Foxtail, Green); rate 0.0625 kg/ha): 0.0
- Preemergence herbicidal rating SETVI (SETVI (Foxtail, Green); rate 0.1250 kg/ha): 6.0
- Preemergence herbicidal rating SETVI (SETVI (Foxtail, Green); rate 0.2500 kg/ha): 6.0
- Herbicidal rating MOOVA (MOOVA (Monochoria); 0.0313 kg/ha): 9.0
- Herbicidal rating MOOVA (MOOVA (Monochoria); 0.0625 kg/ha): 9.0
- Herbicidal rating MOOVA (MOOVA (Monochoria); 0.1250 kg/ha): 9.0
- Herbicidal rating MOOVA (MOOVA (Monochoria); 0.2500 kg/ha): 9.0
- Herbicidal rating CYPIR (CYPIR (Rice Flatsedge); rate 0.0313 kg/ha): 0.0
- Herbicidal rating CYPIR (CYPIR (Rice Flatsedge); rate 0.0625 kg/ha): 0.0
- Herbicidal rating CYPIR (CYPIR (Rice Flatsedge); rate 0.1250 kg/ha): 0.0
- Herbicidal rating CYPIR (CYPIR (Rice Flatsedge); rate 0.2500 kg/ha): 0.0
- Postemergence herbicidal rating ABUTH (ABUTH (Velvetleaf); Rate 0.0158 kg/ha): 9.0
- Postemergence herbicidal rating ABUTH (ABUTH (Velvetleaf); Rate 0.0315 kg/ha): 9.0
- Postemergence herbicidal rating ABUTH (ABUTH (Velvetleaf); Rate 0.0630 kg/ha): 9.0
- Preemergence herbicidal rating IPOHE ([4]; rate 0.0313 kg/ha): 0.0
- Preemergence herbicidal rating IPOHE ([4]; rate 0.0625 kg/ha): 0.0
- Preemergence herbicidal rating IPOHE ([4]; rate 0.1250 kg/ha): 9.0
- Preemergence herbicidal rating IPOHE ([4]; rate 0.2500 kg/ha): 9.0
- Herbicidal rating ECHORC ([5]; 0.0313 kg/ha): 5.0
- Herbicidal rating ECHORC ([5]; 0.0625 kg/ha): 5.0
- Herbicidal rating ECHORC ([5]; 0.1250 kg/ha): 5.0
- Herbicidal rating ECHORC ([5]; 0.2500 kg/ha): 9.0
- Postemergence herbicidal rating IPOHE ([6]; Rate 0.0158 kg/ha): 9.0
- Postemergence herbicidal rating IPOHE ([6]; Rate 0.0315 kg/ha): 9.0
- Postemergence herbicidal rating IPOHE ([6]; Rate 0.0630 kg/ha): 9.0
- Preemergence herbicidal rating CHEAL ([7]; rate 0.0313 kg/ha): 9.0
- Preemergence herbicidal rating CHEAL ([7]; rate 0.0625 kg/ha): 9.0
- Preemergence herbicidal rating CHEAL ([7]; rate 0.1250 kg/ha): 9.0
- Preemergence herbicidal rating CHEAL ([7]; rate 0.2500 kg/ha): 9.0
